Experimental data published in PubChem BioAssay (NCI).
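Assay format: 96-well plates, 48-hour exposure. Here, GI50 denotes the concentration required for 50% inhibition of growth. Definition used: TGI = concentration required for complete inhibition of growth.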

How the values were obtained:
Assay in all cases: NCI tumour cell line growth inhibition, 48 h
[1] = system: 786-0 renal
[2] = system: HS 578T breast
[3] = system: K-562 leukemia
[4] = system: MALME-3M melanoma
[5] = system: NCI-H226 lung
[6] = system: NCI-H522 lung
[7] = system: OVCAR-8 ovarian
[8] = system: RPMI-8226 leukemia
[9] = system: SW-620 colon
[10] = system: UACC-257 melanoma

| SMILES | GI50 [1] [nM] | TGI [1] [nM] | GI50 [2] [nM] | TGI [2] [nM] | GI50 [3] [nM] | TGI [3] [nM] | GI50 [4] [nM] | TGI [4] [nM] | GI50 [5] [nM] | TGI [5] [nM] | GI50 [6] [nM] | TGI [6] [nM] | GI50 [7] [nM] | TGI [7] [nM] | GI50 [8] [nM] | TGI [8] [nM] | GI50 [9] [nM] | TGI [9] [nM] | GI50 [10] [nM] | TGI [10] [nM] |
| --- | --- | --- | --- | --- | --- | --- | --- | --- | --- | --- | --- | --- | --- | --- | --- | --- | --- | --- | --- | --- |
| COc1cc(C2CC(=O)Nc3c2ccc2ccccc32)cc(Br)c1OC (stereo unspecified) | 569 | > 39300 | 376 | > 23200 | 349 | > 75700 | 582 | > 70600 | 6400 | > 100000 | 410 | 8420 | 772 | > 51100 | 562 | 24100 | 359 | > 100000 | 504 | 68100 |
| c1ccc(B2OCC(C3OB(c4ccccc4)OC4COB(c5ccccc5)OC43)O2)cc1 (stereo unspecified) |  | > 100000 |  | > 100000 |  | > 100000 |  | > 100000 |  |  |  | > 100000 |  | > 100000 |  | > 100000 |  | > 100000 |  | > 100000 |
| COc1ccc(-c2ccc(-c3ccc(C(=N)N)cn3)o2)cc1Cl | 1860 | 3400 | 2080 | 6180 | 2700 | 7500 | 1810 | 3480 | 2890 | 13300 | 1850 | 3590 |  |  |  |  | 1780 | 3570 | 2350 | 4850 |
| Cc1cnccc1N=Nc1ccc(N(C)C)cc1 |  | > 100000 |  | > 100000 |  | 76700 |  | > 100000 |  | 29100 |  |  |  | 60100 |  | 48300 |  | > 100000 |  | 53500 |
| CCN(CC)CCn1c2ccc(OC)cc2c2sc3cc(OC)ccc3c(=O)c21 | 1590 | 3230 | 1960 | 4980 | 728 | 2760 | 1590 | 3180 | 2460 | 7490 | 1710 | 4220 | 1930 | 11300 |  |  | 825 | 2410 | 1920 | 3940 |
| COC(=O)[C@H](C)NC(=O)[C@@H](OC)[C@@H]1Cc2cc3cc(OC4CC(OC5CC(O)C(O)C(C)O5)C(O)C(C)O4)c(C)c(O)c3c(O)c2C(=O)[C@H]1OC1CC(OC2CC(OC3CC(C)(O)C(O)C(C)O3)C(O)C(C)O2)C(O)C(C)O1 (stereo partly specified) | 148 | 9160 | 98.3 | 2170 | 179 | > 50000 | 29.6 | 315 | 106 | 495 |  |  | 46.1 | > 50000 | 100 | 1890 | 116 | > 50000 | 52 | 846 |
| COc1ccc(-c2cc(-c3cccc(NS(C)(=O)=O)c3)nc(N)c2C#N)cc1 | 283 | 13700 | 46.8 | 2390 | 54.1 | > 100000 | 41.7 | 21800 | 72.5 | 28200 | 16.4 | 1250 | 222 | 34600 | 286 | 8230 | 48 | > 100000 |  |  |
| C=C(CNC(=O)c1ccccc1)c1ccc(C(=O)Nc2ccccc2N)cc1 | 7550 | > 100000 | 20000 | > 100000 | 1260 | > 100000 | 2000 | > 100000 | 1390 | 7410 | 2600 | 10100 | 5610 | > 100000 |  |  | 3620 | > 100000 | 3620 | 23600 |
